Assay [1] addresses T1, Shp1 S118A/R138E/S140A mutant (Homo sapiens, UniProt P29350, R136E/S116A/S138A).
T1 construct: a tailless-form of Shp1 (residues 1–529) has previously been used [25] and it is used also in this study; 6xHis (N); made in house; host or cells: E. coli BL21(DE3)
T1 sequence (P29350 1-529 isoform P29350-3 S118A/R138E/S140A): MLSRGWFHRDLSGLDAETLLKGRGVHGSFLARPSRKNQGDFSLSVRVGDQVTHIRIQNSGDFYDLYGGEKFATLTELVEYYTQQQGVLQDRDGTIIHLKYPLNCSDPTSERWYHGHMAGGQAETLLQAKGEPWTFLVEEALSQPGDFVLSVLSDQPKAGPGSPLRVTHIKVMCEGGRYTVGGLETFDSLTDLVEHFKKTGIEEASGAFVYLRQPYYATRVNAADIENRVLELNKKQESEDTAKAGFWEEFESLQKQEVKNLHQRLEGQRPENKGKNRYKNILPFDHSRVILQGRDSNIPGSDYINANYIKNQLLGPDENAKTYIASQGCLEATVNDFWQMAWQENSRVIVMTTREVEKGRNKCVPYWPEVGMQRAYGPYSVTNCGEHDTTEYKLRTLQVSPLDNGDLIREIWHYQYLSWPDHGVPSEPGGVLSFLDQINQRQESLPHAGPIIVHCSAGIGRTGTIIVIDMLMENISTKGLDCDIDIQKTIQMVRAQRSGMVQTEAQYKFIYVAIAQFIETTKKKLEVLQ
Put plainly: Isothermal titration calorimetry, Shp1 S118A/R138E/S140A mutant. Type of assay: binding. The settings on record: very small heat effect, value not with sufficient confidence. On the procedure: ITC measurements were performed by using a Nano-ITC III (TA instruments, New Castle, DE, USA) with a reaction cell volume of 1 ml kept at 25 °C. A protein solution of 10 μM was titrated into the calorimetric cell with a solution of 50–100 μM of the ligand GroPIns4P (Ins4P) in the syringe. A sequence of 16 injections of 15 μL volume was programmed with a stirring speed of 250 rpm at 500 s intervals. Protein samples were prepared with protein solutions at 25 °C in 20 mM Tris buffer pH 7.4 with 50 mM NaCl and 1 mM TCEP. To minimise the differences in buffer composition and pH between cell and syringe, both ligand and protein solutions were prepared with the same batch of buffer. The heat of dilution of the GroPIns4P into the buffer solution was measured in a separate experiment and appropriate corrections were made. The heat evolved after each ligand injection was obtained from the integral of the calorimetric signal. Raw data were integrated, corrected for non-specific heats and normalized for concentration. The equilibrium dissociation constant (KD), binding enthalpy (ΔbH) and binding stoichiometry (n) were obtained by nonlinear regression of the experimental data using a model of independent binding sites, by means of the NanoAnalyze software. Experiments were performed in duplicate.
(In general: ITC needs no label: the signal is the heat of the interaction.)

Assay [2] deals with Src. Description: Western blotting of Src and PLCγ phosphorylation in NIH3T3 cells. Type of assay: cell-based. On the procedure:
(§1) NIH3T3 and Raw 264.7 cells were cultured in DMEM supplemented with 2 mM L-glutamine, 50 U/mL penicillin, […] streptomycin, and 10% CS or heat-inactivated FBS (30 min at 55 °C), respectively. NIH3T3 cells were transfected with different plasmids using the Lipofectamine LTX/plus reagent according to the manufacturer’s instructions. For immunofluorescence experiments, NIH3T3 cells were seeded onto glass coverslips in 24-well plates at a concentration suitable for 70% confluence without transfection or 50% confluence in the case of Lipofectamine-based cell transfection. In the latter, approximately 24 h after seeding, NIH3T3 cells were transiently transfected with different plasmids with the Lipofectamine LTX/plus reagent following the manufacturer’s instructions. Before treatments, NIH3T3 cells were serum-starved in DMEM with 2 mM glutamine, 50 U/mL penicillin and streptomycin for 16–20 h. The cells were then treated with different stimuli and/or inhibitors, as indicated in the text and/or Figure legends. Addition of exogenous GroPIns4P was at 50 μM (unless otherwise indicated), a concentration eliciting an intracellular concentration of about 1.5 μM, as calculated from the Nernst equation (with T = 300 K, z = − 3, and Veq = − 30 mV, an average value for cultured, non-excitable cells).
(§2) NIH3T3 cells were washed with ice-cold PBS and lysed on ice in buffer containing 20 mM Tris-HCl, pH 8.0, 150 mM NaCl, 1% Triton-X100, 5 mM Na3VO4, 30 mM β-glycerophosphate and 10 mM NaF supplemented with the protease inhibitor cocktail and processed for SDS-PAGE. Westen blotting was performed with the relevant antibodies. For immunoprecipitation experiments, 2 μg of an anti-Shp1 antibody or 5 μg of an anti-Src antibody were added to 1 mg of NIH3T3 cell lysates at 4 °C and incubated overnight. The samples were then incubated with A or G protein agarose beads for 1 h at 4 °C. Western blotting was performed from the washed and denatured complexes.
(In western blotting, separated proteins are transferred to a membrane and probed.)

Assay [3] deals with T2, Shp1 and Src.
T2 construct: expressed in transfected cells; host or cells: NIH3T3
Put plainly: Co-immunoprecipitation of Src with Shp1 in NIH3T3 cells. Conditions: 50 μM for 5 min. Type of assay: cell-based. On the procedure: as §2

Assay [4] concerns NIH3T3 cells. Put plainly: Immunofluorescence analysis for membrane ruffling. Type of assay: cell-based. On the procedure: as §1
For ruffle assessment after treatments, immunofluorescence labelling and morphological analysis of the cells were performed as previously described in a double-blind fashion. In brief, the assessment was based on a null score (zero) for the absence of the feature, followed by a score of one or two according to the level of response of each individual cell, where one indicate that ruffling was confined to one area of the cell (< 25% of the cell circumference), and two indicate that two or more discrete areas of the cell contained ruffles. The cell phenotypes were quantified by counting 150 cells in each sample. The data were then expressed as percentage scores (±SD) for each treatment response compared with its respective control. Scoring of the control cells was performed in the same way to evaluate the presence of the features of interest in untreated cells.

The mark [5] stands for this setting: NIH3T3 overexpressing Shp1-C455S, 50 μM.

Regarding `O=P(O)(O)OC1C(O)C(O)C(OP(=O)(O)OCC(O)CO)C(O)C1O` (stereo not shown) [GroPIns4P, glycerophosphoinositol 4-phosphate], in assay [1], the “KD relative to Shp1 WT” value was “about one order of magnitude higher”. In addition, the “phosphorylation of PLCγ on Tyr783” value in assay [2] (NIH3T3, 50 μM) is recorded as “induced an increase in phosphorylation”. Moreover, in assay [2] (NIH3T3, 50 μM for 2 to 5 min), the “Src activating Tyr418 phosphorylation” value was “increased” and the “Src inhibitory Tyr530 phosphorylation” value is on record as “markedly decreased”. In assay [2] (setting [5]), the “Src Tyr418 or PLCγ tyrosine phosphorylation” value is recorded as “no increase” and the “Src dephosphorylation (pTyr530)” value was “failed to induce Src dephosphorylation”. Moreover, in assay [3] (NIH3T3 over-expressing Shp1-C455S), the “increase in the interaction between Shp1-C455S and Src” value came out at 2.2 fold. In assay [3] (NIH3T3 over-expressing Shp1 S118A/R138E/S140A), the “change in Shp1-Src complex formation” value is “no change”. Further, the “increase of Shp1-Src interaction compared with the control” value in assay [3] (NIH3T3 over-expressing Shp1 WT) is on record as “about 1.6 fold”. Also, the “increase in peripheral ruffles versus the control” value in assay [4] (50 μM GroPIns4P for 5 min) was 2.5–3 fold. For the same compound, in assay [4] (cells expressing Shp1 S118A/R138E/S140A, 50 μM GroPIns4P), the “effect on ruffle formation” value is reported as “significantly inhibited”. In addition, the membrane ruffle formation result in assay [4] (cells over-expressing Shp1-C455S, 50 μM GroPIns4P) is listed as “did not lead to membrane ruffle formation”. In assay [4] (cells over-expressing Shp1 S12A/R32E/S34A, 50 μM GroPIns4P), the actin ruffle formation entry is recorded as “resulted in the induction of actin ruffles”.

The record behind these values is paper PMC6396489 (Cell Communication and Signaling : CCS, 2019).
